Data: ChEMBL document CHEMBL4382262, “Structurally Simple, Readily Available Peptidomimetic 1-Benzyl-5-methyl-4-( n-octylamino)pyrimidin-2(1 H)-one Exhibited Efficient Cardioprotection in a Myocardial Ischemia (MI) Mouse Model” (J Med Chem, 2018)
Calls of active or inactive are those of the source. The calls are words filed in the database; no cut-off is given here. Where a SMILES comes first, the peptide text is derived from it.

Experiments:
[1] = target: T1, Toll-like receptor 4 (Rattus norvegicus) (UniProt Q9QX05); test: Inhibition of TLR4 in Sprague-Dawley rat cardiomyocytes assessed as reduction in hypoxia-induced creatine kinase levels preincubated for 1 hr followed by hypoxia for 3 hrs by NADP reduction based colorimetric analysis; assay type: cell-based
T1 sequence (whole entry): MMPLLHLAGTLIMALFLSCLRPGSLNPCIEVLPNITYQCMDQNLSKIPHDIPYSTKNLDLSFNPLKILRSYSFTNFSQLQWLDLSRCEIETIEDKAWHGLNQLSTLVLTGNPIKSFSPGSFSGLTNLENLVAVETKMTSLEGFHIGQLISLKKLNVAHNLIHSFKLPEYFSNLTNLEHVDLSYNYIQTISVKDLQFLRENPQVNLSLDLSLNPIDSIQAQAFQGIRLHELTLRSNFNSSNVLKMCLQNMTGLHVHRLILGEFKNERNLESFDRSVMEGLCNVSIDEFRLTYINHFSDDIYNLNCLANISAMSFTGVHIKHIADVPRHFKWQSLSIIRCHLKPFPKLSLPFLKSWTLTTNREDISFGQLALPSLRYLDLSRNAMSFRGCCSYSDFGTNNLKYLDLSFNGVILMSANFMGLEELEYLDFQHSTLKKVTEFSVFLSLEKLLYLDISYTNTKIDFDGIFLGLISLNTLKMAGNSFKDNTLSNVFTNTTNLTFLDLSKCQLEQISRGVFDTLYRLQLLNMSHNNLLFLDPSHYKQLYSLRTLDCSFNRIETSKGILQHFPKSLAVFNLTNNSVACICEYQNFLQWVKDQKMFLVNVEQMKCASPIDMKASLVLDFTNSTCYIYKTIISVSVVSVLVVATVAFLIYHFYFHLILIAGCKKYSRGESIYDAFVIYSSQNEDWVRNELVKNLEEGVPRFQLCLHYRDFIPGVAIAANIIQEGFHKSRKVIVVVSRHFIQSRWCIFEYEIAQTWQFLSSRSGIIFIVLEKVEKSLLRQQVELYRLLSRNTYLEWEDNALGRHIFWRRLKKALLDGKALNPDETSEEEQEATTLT

[2] = target: T1, Toll-like receptor 4 (Rattus norvegicus); test: Inhibition of TLR4 in Sprague-Dawley rat cardiomyocytes assessed as reduction in hypoxia-induced LDH release preincubated for 1 hr followed by hypoxia for 3 hrs by NADH detection based colorimetric analysis; assay type: cell-based
[3] = target: T1, Toll-like receptor 4 (Rattus norvegicus); test: Inhibition of TLR4 in Sprague-Dawley rat cardiomyocytes assessed as reduction in hypoxia-induced creatine kinase levels at 20 uM preincubated for 1 hr followed by hypoxia for 3 hrs by NADP reduction based colorimetric analysis; assay type: cell-based
[4] = target: T1, Toll-like receptor 4 (Rattus norvegicus); test: Inhibition of TLR4 in Sprague-Dawley rat cardiomyocytes assessed as reduction in hypoxia-induced creatine kinase levels at 10 uM preincubated for 1 hr followed by hypoxia for 3 hrs by NADP reduction based colorimetric analysis; assay type: cell-based
[5] = target: T1, Toll-like receptor 4 (Rattus norvegicus); test: Inhibition of TLR4 in Sprague-Dawley rat cardiomyocytes assessed as reduction in hypoxia-induced LDH release at 10 uM preincubated for 1 hr followed by hypoxia for 3 hrs by NADH detection based colorimetric analysis; assay type: cell-based
[6] = target: T1, Toll-like receptor 4 (Rattus norvegicus); test: Inhibition of TLR4 in Sprague-Dawley rat cardiomyocytes assessed as reduction in hypoxia-induced LDH release at 20 uM preincubated for 1 hr followed by hypoxia for 3 hrs by NADH detection based colorimetric analysis; assay type: cell-based
[7] = tested on: Macrophage; test: Antiinflammatory activity in human macrophages assessed reduction in LPS-induced TLR4 expression at 10 uM pretreated for 30 mins followed by LPS stimulation for 4 hrs by FACS analysis; assay type: functional, cell-based
[8] = tested on: Macrophage; test: Antiinflammatory activity in human macrophages assessed reduction in TLR4 expression at 10 uM after 4 hrs by FACS analysis; assay type: functional, cell-based
[9] = Reduction in hypoxia-induced TLR4 mRNA expression in Sprague-Dawley rat cardiomyocytes at 20 uM preincubated for 1 hr followed by hypoxia for 3 hrs by RT-qPCR analysis relative to untreated control; assay type: functional, Cardiac muscle cell
[10] = target: T1, Toll-like receptor 4 (Rattus norvegicus); test: Inhibition of TLR4 in Sprague-Dawley rat cardiomyocytes assessed as reduction in hypoxia-induced IL-1beta mRNA expression at 20 uM preincubated for 1 hr followed by hypoxia for 3 hrs by RT-qPCR analysis; assay type: cell-based
[11] = target: T1, Toll-like receptor 4 (Rattus norvegicus); test: Inhibition of TLR4 in Sprague-Dawley rat cardiomyocytes assessed as reduction in hypoxia-induced creatine kinase levels at 10 to 20 uM preincubated for 1 hr followed by hypoxia for 3 hrs by NADP reduction based colorimetric analysis; assay type: cell-based
[12] = target: T1, Toll-like receptor 4 (Rattus norvegicus); test: Inhibition of TLR4 in Sprague-Dawley rat cardiomyocytes assessed as reduction in hypoxia-induced LDH release at 10 to 20 uM preincubated for 1 hr followed by hypoxia for 3 hrs by NADH detection based colorimetric analysis; assay type: cell-based
[13] = target: T1, Toll-like receptor 4 (Rattus norvegicus); test: Inhibition of TLR4 in Sprague-Dawley rat cardiomyocytes assessed as reduction in LPS-induced creatine kinase levels at 10 to 20 uM preincubated for 1 hr followed by LPS stimulation for 5 hrs by NADH detection based colorimetric analysis; assay type: cell-based
[14] = target: T1, Toll-like receptor 4 (Rattus norvegicus); test: Inhibition of TLR4 in Sprague-Dawley rat cardiomyocytes assessed as reduction in LPS-induced LDH release at 10 to 20 uM preincubated for 1 hr followed by LPS stimulation for 5 hrs by NADH detection based colorimetric analysis; assay type: cell-based
[15] = target: T1, Toll-like receptor 4 (Rattus norvegicus); test: Inhibition of TLR4 in Sprague Dawley rat cardiomyocytes assessed as reduction in LPS induced LDH levels by measuring NADH levels at 10 to 20 uM preincubated for 1 hr followed by induction of hypoxia measured after 5 hrs by colorimetric analysis; assay type: cell-based
[16] = target: T1, Toll-like receptor 4 (Rattus norvegicus); test: Inhibition of TLR4 in Sprague-Dawley rat cardiomyocytes assessed as reduction in hypoxia-induced creatine kinase levels at 1 uM preincubated for 1 hr followed by hypoxia for 3 hrs by NADP reduction based colorimetric analysis; assay type: cell-based
[17] = target: T1, Toll-like receptor 4 (Rattus norvegicus); test: Inhibition of TLR4 in Sprague-Dawley rat cardiomyocytes assessed as reduction in hypoxia-induced LDH release at 1 uM preincubated for 1 hr followed by hypoxia for 3 hrs by NADH detection based colorimetric analysis; assay type: cell-based

Row | Molecule | inhibition [1] | inhibition [2] | also measured
1 | CSCC[C@H](NC(C)=O)C(=O)N1CCC[C@H]1C(=O)NC(CS)C(=O)NCC(N)=O (single isomer, unassigned) | inactive | inactive | 
2 | H-IVFAEMPCG-OH |  |  | fold change (FC) [3]: 5.5; inhibition [4]: inactive; inhibition [5]: inactive; fold change (FC) [6]: 1.8; Activity [7]: Active; Activity [8]: Active
3 | CCOc1nc(=O)n(Cc2ccc3ccccc3c2)cc1C | inactive | inactive | 
4 | CC(=O)N[C@H](C(=O)N[C@@H](Cc1ccccc1)C(=O)N[C@@H](C)C(N)=O)C(C)C (Ac-Val-Phe-Ala-NH2) | inactive | inactive | 
5 | CSCC[C@H](NC(=O)[C@H](CCC(=O)O)NC(=O)[C@H](C)NC(C)=O)C(=O)N1CCC[C@H]1C(N)=O (Ac-AEMP-NH2) | Dose-dependent effect | Dose-dependent effect | 
6 | CCOc1nc(=O)n(Cc2ccccc2)cc1C | inactive | inactive | 
7 | Cc1cn(Cc2ccccc2)c(=O)nc1NCCC(C)C |  |  | inhibition [4]: Active; inhibition [5]: Active; fold change (FC) [9]: 1.5; fold change (FC) [10]: 1.4
8 | CC(=O)N[C@H](C(=O)N[C@@H](Cc1ccccc1)C(=O)N[C@@H](C)C(=O)N[C@@H](CCC(=O)O)C(N)=O)C(C)C (Ac-VFAE-NH2) | Dose-dependent effect | Dose-dependent effect | inhibition [11]: Active; inhibition [12]: Active; inhibition [13]: Active; inhibition [14]: Active; inhibition [15]: Active; Activity [7]: Active; Activity [8]: Active
9 | Cc1cn(Cc2ccccc2)c(=O)nc1NC1CCCC1 | inactive | inactive | 
10 | Cc1cn(Cc2ccccc2)c(=O)nc1NCCCN(C)C | inactive | inactive | 
11 | CC(=O)N[C@@H](Cc1ccccc1)C(=O)N[C@@H](C)C(=O)N[C@@H](CCC(=O)O)C(N)=O (Ac-Phe-Ala-Glu-NH2) | inactive | inactive | 
12 | CCCCCCCCCCNc1nc(=O)n(Cc2ccccc2)cc1C | inactive | inactive | 
13 | CCCCCCCCNc1nc(=O)n(Cc2ccc([N+](=O)[O-])cc2)cc1C | inactive | inactive | 
14 | CCCCCCCCNc1nc(=O)n(Cc2ccc(C(F)(F)F)cc2)cc1C | inactive | inactive | 
15 | Cc1cn(Cc2ccccc2)c(=O)nc1NCc1ccccc1 | inactive | inactive | 
16 | CSCC[C@H](NC(=O)[C@H](CCC(=O)O)NC(=O)[C@H](C)NC(=O)[C@H](Cc1ccccc1)NC(C)=O)C(N)=O (Ac-FAEM-NH2) | Dose-dependent effect | Dose-dependent effect | inhibition [11]: Active; inhibition [12]: Active
17 | CCOc1nc(=O)n(Cc2ccc([N+](=O)[O-])cc2)cc1C | inactive | inactive | 
18 | CCC(C)Nc1nc(=O)n(Cc2ccccc2)cc1C (stereo not drawn) | inactive | inactive | 
19 | CSCC[C@H](NC(=O)[C@H](CCC(=O)O)NC(C)=O)C(=O)N1CCC[C@H]1C(=O)NC(CS)C(N)=O (single isomer, unassigned) | inactive | inactive | 
20 | CC[C@H](C)[C@H](NC(C)=O)C(=O)N[C@H](C(=O)N[C@@H](Cc1ccccc1)C(=O)N[C@@H](C)C(N)=O)C(C)C (Ac-IVFA-NH2) | Dose-dependent effect | Dose-dependent effect | inhibition [16]: 77%; inhibition [17]: 70%; inhibition [13]: Active; inhibition [14]: Active; inhibition [15]: Active; Activity [7]: Active; Activity [8]: Active
21 | CCOc1ncc(C)c(OCC)n1 | inactive | inactive | 
22 | CCOc1nc(=O)n(Cc2ccc(C(F)(F)F)cc2)cc1C | inactive | inactive | 
23 | CC[C@H](C)[C@H](NC(C)=O)C(=O)N[C@@H](Cc1ccccc1)C(=O)N[C@@H](C)C(N)=O (Ac-Ile-Phe-Ala-NH2) | inactive | inactive | 
